Numbers after ± are expanded uncertainties.
Assay: refractive index (Na D-line) (dimensionless); xn = mol fraction of the nth substance listed
Settings: 101 kPa, Liquid, Standard Abbe refractometry

Structure (SMILES): C1COCO1 [1,3-dioxolane] + CC(C)CC(C)(C)C
- refractive index (288.15 K, x1 = 0.0501): 1.39395 ± 0.00032
- refractive index (288.15 K, x1 = 0.1): 1.39385 ± 0.00032
- refractive index (288.15 K, x1 = 0.15): 1.39377 ± 0.00032
- refractive index (288.15 K, x1 = 0.2): 1.39374 ± 0.00032
- refractive index (288.15 K, x1 = 0.25): 1.39378 ± 0.00032
- refractive index (288.15 K, x1 = 0.3): 1.39389 ± 0.00032
- refractive index (288.15 K, x1 = 0.35): 1.39411 ± 0.00032
- refractive index (288.15 K, x1 = 0.4): 1.3944 ± 0.00032
- refractive index (288.15 K, x1 = 0.45): 1.39473 ± 0.00032
- refractive index (288.15 K, x1 = 0.5): 1.39512 ± 0.00032
- refractive index (288.15 K, x1 = 0.55): 1.39558 ± 0.00032
- refractive index (288.15 K, x1 = 0.6): 1.3961 ± 0.00032
- refractive index (288.15 K, x1 = 0.65): 1.39668 ± 0.00032
- refractive index (288.15 K, x1 = 0.7): 1.39734 ± 0.00032
- refractive index (288.15 K, x1 = 0.75): 1.39807 ± 0.00032
- refractive index (288.15 K, x1 = 0.8): 1.39883 ± 0.00032
- refractive index (288.15 K, x1 = 0.85): 1.39966 ± 0.00033
- refractive index (288.15 K, x1 = 0.9): 1.40055 ± 0.00033
- refractive index (288.15 K, x1 = 0.95): 1.40152 ± 0.00033
- refractive index (288.15 K, x1 = 1): 1.40252 ± 0.00033
- refractive index (298.15 K, x1 = 0.0501): 1.38898 ± 0.00032
- refractive index (298.15 K, x1 = 0.1): 1.38885 ± 0.00032
- refractive index (298.15 K, x1 = 0.15): 1.38876 ± 0.00032
- refractive index (298.15 K, x1 = 0.2): 1.38876 ± 0.00032
- refractive index (298.15 K, x1 = 0.25): 1.38883 ± 0.00032
- refractive index (298.15 K, x1 = 0.3): 1.38897 ± 0.00032
- refractive index (298.15 K, x1 = 0.35): 1.3892 ± 0.00032
- refractive index (298.15 K, x1 = 0.4): 1.38948 ± 0.00032
- refractive index (298.15 K, x1 = 0.45): 1.38982 ± 0.00032
- refractive index (298.15 K, x1 = 0.5): 1.39022 ± 0.00032
- refractive index (298.15 K, x1 = 0.55): 1.39068 ± 0.00032
- refractive index (298.15 K, x1 = 0.6): 1.3912 ± 0.00032
- refractive index (298.15 K, x1 = 0.65): 1.39178 ± 0.00032
- refractive index (298.15 K, x1 = 0.7): 1.39243 ± 0.00032
- refractive index (298.15 K, x1 = 0.75): 1.39318 ± 0.00032
- refractive index (298.15 K, x1 = 0.8): 1.39399 ± 0.00032
- refractive index (298.15 K, x1 = 0.85): 1.39487 ± 0.00033
- refractive index (298.15 K, x1 = 0.9): 1.39581 ± 0.00033
- refractive index (298.15 K, x1 = 0.95): 1.39683 ± 0.00033
- refractive index (298.15 K, x1 = 1): 1.39795 ± 0.00033
- refractive index (308.15 K, x1 = 0.0501): 1.38381 ± 0.00032
- refractive index (308.15 K, x1 = 0.1): 1.38367 ± 0.00032
- refractive index (308.15 K, x1 = 0.15): 1.38361 ± 0.00032
- refractive index (308.15 K, x1 = 0.2): 1.3836 ± 0.00032
- refractive index (308.15 K, x1 = 0.25): 1.3837 ± 0.00032
- refractive index (308.15 K, x1 = 0.3): 1.38387 ± 0.00032
- refractive index (308.15 K, x1 = 0.35): 1.3841 ± 0.00032
- refractive index (308.15 K, x1 = 0.4): 1.3844 ± 0.00032
- refractive index (308.15 K, x1 = 0.45): 1.38476 ± 0.00032
- refractive index (308.15 K, x1 = 0.5): 1.38517 ± 0.00032
- refractive index (308.15 K, x1 = 0.55): 1.38563 ± 0.00032
- refractive index (308.15 K, x1 = 0.6): 1.38614 ± 0.00032
- refractive index (308.15 K, x1 = 0.65): 1.38672 ± 0.00032
- refractive index (308.15 K, x1 = 0.7): 1.38739 ± 0.00032
- refractive index (308.15 K, x1 = 0.75): 1.38814 ± 0.00032
- refractive index (308.15 K, x1 = 0.8): 1.38895 ± 0.00032
- refractive index (308.15 K, x1 = 0.85): 1.38987 ± 0.00033
- refractive index (308.15 K, x1 = 0.9): 1.3909 ± 0.00033
- refractive index (308.15 K, x1 = 0.95): 1.39199 ± 0.00033
- refractive index (308.15 K, x1 = 1): 1.39322 ± 0.00033

Structure (SMILES): C1COCO1 [1,3-dioxolane] + CC(C)O
- refractive index (288.15 K, x1 = 0.05): 1.38037 ± 0.00033
- refractive index (288.15 K, x1 = 0.1): 1.38139 ± 0.00033
- refractive index (288.15 K, x1 = 0.15): 1.38242 ± 0.00033
- refractive index (288.15 K, x1 = 0.2): 1.38343 ± 0.00033
- refractive index (288.15 K, x1 = 0.25): 1.38447 ± 0.00033
- refractive index (288.15 K, x1 = 0.3001): 1.3855 ± 0.00033
- refractive index (288.15 K, x1 = 0.35): 1.38655 ± 0.00033
- refractive index (288.15 K, x1 = 0.4): 1.38763 ± 0.00033
- refractive index (288.15 K, x1 = 0.45): 1.38875 ± 0.00033
- refractive index (288.15 K, x1 = 0.5): 1.3899 ± 0.00033
- refractive index (288.15 K, x1 = 0.55): 1.39107 ± 0.00033
- refractive index (288.15 K, x1 = 0.6): 1.39227 ± 0.00033
- refractive index (288.15 K, x1 = 0.65): 1.39348 ± 0.00033
- refractive index (288.15 K, x1 = 0.7001): 1.39473 ± 0.00033
- refractive index (288.15 K, x1 = 0.75): 1.396 ± 0.00033
- refractive index (288.15 K, x1 = 0.8): 1.39731 ± 0.00033
- refractive index (288.15 K, x1 = 0.85): 1.39862 ± 0.00033
- refractive index (288.15 K, x1 = 0.9): 1.39993 ± 0.00033
- refractive index (288.15 K, x1 = 0.95): 1.40123 ± 0.00033
- refractive index (288.15 K, x1 = 1): 1.40252 ± 0.00033
- refractive index (298.15 K, x1 = 0.05): 1.37601 ± 0.00033
- refractive index (298.15 K, x1 = 0.1): 1.37686 ± 0.00033
- refractive index (298.15 K, x1 = 0.15): 1.37776 ± 0.00033
- refractive index (298.15 K, x1 = 0.2): 1.37869 ± 0.00033
- refractive index (298.15 K, x1 = 0.25): 1.37966 ± 0.00033
- refractive index (298.15 K, x1 = 0.3001): 1.38065 ± 0.00033
- refractive index (298.15 K, x1 = 0.35): 1.38168 ± 0.00033
- refractive index (298.15 K, x1 = 0.4): 1.38274 ± 0.00033
- refractive index (298.15 K, x1 = 0.45): 1.38384 ± 0.00033
- refractive index (298.15 K, x1 = 0.5): 1.38496 ± 0.00033
- refractive index (298.15 K, x1 = 0.55): 1.38611 ± 0.00033
- refractive index (298.15 K, x1 = 0.6): 1.38729 ± 0.00033
- refractive index (298.15 K, x1 = 0.65): 1.3885 ± 0.00033
- refractive index (298.15 K, x1 = 0.7001): 1.38975 ± 0.00033
- refractive index (298.15 K, x1 = 0.75): 1.39103 ± 0.00033
- refractive index (298.15 K, x1 = 0.8): 1.39234 ± 0.00033
- refractive index (298.15 K, x1 = 0.85): 1.39368 ± 0.00033
- refractive index (298.15 K, x1 = 0.9): 1.39509 ± 0.00033
- refractive index (298.15 K, x1 = 0.95): 1.39653 ± 0.00033
- refractive index (298.15 K, x1 = 1): 1.39795 ± 0.00033
- refractive index (308.15 K, x1 = 0.05): 1.37126 ± 0.00033
- refractive index (308.15 K, x1 = 0.1): 1.37207 ± 0.00033
- refractive index (308.15 K, x1 = 0.15): 1.37295 ± 0.00033
- refractive index (308.15 K, x1 = 0.2): 1.37388 ± 0.00033
- refractive index (308.15 K, x1 = 0.25): 1.37483 ± 0.00033
- refractive index (308.15 K, x1 = 0.3001): 1.37579 ± 0.00033
- refractive index (308.15 K, x1 = 0.35): 1.3768 ± 0.00033
- refractive index (308.15 K, x1 = 0.4): 1.37785 ± 0.00033
- refractive index (308.15 K, x1 = 0.45): 1.37894 ± 0.00033
- refractive index (308.15 K, x1 = 0.5): 1.38006 ± 0.00033
- refractive index (308.15 K, x1 = 0.55): 1.38121 ± 0.00033
- refractive index (308.15 K, x1 = 0.6): 1.38238 ± 0.00033
- refractive index (308.15 K, x1 = 0.65): 1.38359 ± 0.00033
- refractive index (308.15 K, x1 = 0.7001): 1.38483 ± 0.00033
- refractive index (308.15 K, x1 = 0.75): 1.38608 ± 0.00033
- refractive index (308.15 K, x1 = 0.8): 1.38737 ± 0.00033
- refractive index (308.15 K, x1 = 0.85): 1.38872 ± 0.00033
- refractive index (308.15 K, x1 = 0.9): 1.39013 ± 0.00033
- refractive index (308.15 K, x1 = 0.95): 1.39165 ± 0.00033
- refractive index (308.15 K, x1 = 1): 1.39322 ± 0.00033
